Values of other authors, collected in patent US9155308B2, “Agricultural pesticide formulation” (priority 2013, dated 2015).

Conditions: based on animal studies

Compound: Cc1c(COC(=O)[C@@H]2[C@H](/C=C(\Cl)C(F)(F)F)C2(C)C)cccc1-c1ccccc1 (racemic) [bifenthrin, Bifenthrin]
- chronic reference dose (RfD) (daily exposure): 0.013 mg/kg bodyweight/day
- acute reference dose (RfD) (one-time exposure): 0.328 mg/kg bodyweight/day
